What was measured:
[1] = system: murine bone marrow-derived macrophages; test: area under cytotoxicity dose-response curve (AUC (% cytotoxicity x dose, relative)); higher = more cytotoxic; details: duration: 6 days; dose range: 0.13-80 uM, 8 points
Procedure, shortened: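 Primary murine bone marrow-derived macrophages in opaque 384-well plates were exposed to an 8-point, 2.5-fold dilution series (final 80–0.13 μM) for 6 days at 37 °C in 5% CO2. Viability was read with Promega's CellTiter-Glo luminescence assay, and percent cytotoxicity was normalised to vehicle and positive control wells. Cytotoxicity is reported as the area under the dose–response curve, calculated in GraphPad Prism version 10.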

[2] = system: Mycobacterium tuberculosis CDC1551 (intracellular, in murine BMDM); test: area under intracellular growth-inhibition dose-response curve (AUC (% inhibition x dose, relative)); higher = more potent; details: duration: 6 days; dose range: 0.13-80 uM, 8 points
Procedure, shortened: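 Macrophages derived from primary murine bone marrow were infected for 1 h at multiplicity of infection 1 with luciferase-expressing M. tuberculosis CDC1551, then treated for 6 days at final concentrations of 80–0.13 μM. Bright-Glo luciferin signal, normalised to a reference drug control and the lowest-concentration wells, gave the growth readout. Area under the growth-inhibition dose–response curve was then calculated in GraphPad Prism.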

Compound: CC(NC(=O)c1ccc(F)cc1)c1ccc(F)cc1 (stereo not drawn)
- area under cytotoxicity dose-response curve [1]: 31.2
- area under intracellular growth-inhibition dose-response curve [2]: 230

Compound: Cc1ccc(NC(=O)NC2CCCCCCC2)cc1C
- area under cytotoxicity dose-response curve [1]: 89
- area under intracellular growth-inhibition dose-response curve [2]: 230

Compound: NS(=O)(=O)c1ccc(CCNC(=S)Nc2ccccc2)cc1
- area under cytotoxicity dose-response curve [1]: < 0
- area under intracellular growth-inhibition dose-response curve [2]: 221

Compound: CC(=O)Nc1ccccc1NC(=O)C/C(C)=N/NC(=O)c1ccncc1
- area under cytotoxicity dose-response curve [1]: 38.1
- area under intracellular growth-inhibition dose-response curve [2]: 168

Compound: O=C(COc1ccccc1)NC1CCCCC1
- area under cytotoxicity dose-response curve [1]: 80.6
- area under intracellular growth-inhibition dose-response curve [2]: 260

Compound: O=C(O)/C=C\C(=O)O.OC(CCCN1CCCCC1)(c1ccccc1)c1ccc(C(F)(F)F)cc1 (stereo not drawn)
- area under cytotoxicity dose-response curve [1]: 32.3
- area under intracellular growth-inhibition dose-response curve [2]: 214

Compound: O=C(c1ccc([N+](=O)[O-])o1)N1CCN(c2nc3ccc(F)cc3s2)CC1
- area under cytotoxicity dose-response curve [1]: 12.7
- area under intracellular growth-inhibition dose-response curve [2]: 22.9

Compound: CC(=O)/C=C(\C)Nc1ccccc1O
- area under cytotoxicity dose-response curve [1]: 95
- area under intracellular growth-inhibition dose-response curve [2]: 54.6

Compound: O=C(CSc1ccc(Cl)cc1)NNC(=O)c1ccncc1
- area under cytotoxicity dose-response curve [1]: 107
- area under intracellular growth-inhibition dose-response curve [2]: 241

Compound: CCC(CO)N1C(C)=CC(=Cc2sc3ccccc3[n+]2Cc2ccccc2)C=C1C.[Br-] (stereo not drawn)
- area under cytotoxicity dose-response curve [1]: 54.8
- area under intracellular growth-inhibition dose-response curve [2]: 176

Compound: Cc1cccc(/C=N/NC(=O)c2ccncc2)n1
- area under cytotoxicity dose-response curve [1]: 14
- area under intracellular growth-inhibition dose-response curve [2]: 269

Compound: O=C(Nc1ccc(N2CCN(C(=O)c3ccc(Cl)cc3)CC2)cc1)c1ccc([N+](=O)[O-])o1
- area under cytotoxicity dose-response curve [1]: 34.5
- area under intracellular growth-inhibition dose-response curve [2]: 246

Compound: Cc1ccccc1OCC(=O)NC(=S)Nc1ccc(N2CCCC2)cc1
- area under cytotoxicity dose-response curve [1]: 105
- area under intracellular growth-inhibition dose-response curve [2]: 182

Compound: O=C1N(c2nncs2)CCN1[N+](=O)[O-]
- area under cytotoxicity dose-response curve [1]: < 0
- area under intracellular growth-inhibition dose-response curve [2]: 97.8

Compound: COc1ccc(N2C(C)=CC(=Cc3sc4ccccc4[n+]3C)C=C2C)cc1.[I-]
- area under cytotoxicity dose-response curve [1]: 87.2
- area under intracellular growth-inhibition dose-response curve [2]: < 0

Compound: O=C(/C=C/c1cn(CC(O)CN2CCCCCC2)c2ccccc12)c1cccs1 (stereo not drawn)
- area under cytotoxicity dose-response curve [1]: < 0
- area under intracellular growth-inhibition dose-response curve [2]: 96.5

Compound: CCOC(=O)c1oc2nc(C(C)C)c3c(c2c1N)CC(C)(C)OC3
- area under cytotoxicity dose-response curve [1]: 80.3
- area under intracellular growth-inhibition dose-response curve [2]: 124

Compound: Cc1ccc(C(=O)c2oc3ccc(Cl)cc3c2NC(=O)CN2CCN(C)CC2)cc1
- area under cytotoxicity dose-response curve [1]: 69.1
- area under intracellular growth-inhibition dose-response curve [2]: 131

Compound: CCn1cc(CNC(=O)c2cc([N+](=O)[O-])c(C)c([N+](=O)[O-])c2)cn1
- area under cytotoxicity dose-response curve [1]: 16.8
- area under intracellular growth-inhibition dose-response curve [2]: 226

Compound: O=C(NC1CCCCC1)c1ccc2snnc2c1
- area under cytotoxicity dose-response curve [1]: < 0
- area under intracellular growth-inhibition dose-response curve [2]: 156

Compound: O=c1c2ccccc2oc2nc3n(c(=O)c12)CCCS3
- area under cytotoxicity dose-response curve [1]: 47.5
- area under intracellular growth-inhibition dose-response curve [2]: 223

Compound: O=C(COC(=O)c1ccccc1O)NC1CCCc2ccccc21 (stereo not drawn)
- area under cytotoxicity dose-response curve [1]: < 0
- area under intracellular growth-inhibition dose-response curve [2]: 126

Compound: O=C(c1ccc(Cl)s1)N1CCN(c2ncccn2)CC1
- area under cytotoxicity dose-response curve [1]: 31.4
- area under intracellular growth-inhibition dose-response curve [2]: 86.8

Compound: Nc1c2c(nc3ccn(Cc4ccccc4)c(=O)c13)CCC2
- area under cytotoxicity dose-response curve [1]: 39.1
- area under intracellular growth-inhibition dose-response curve [2]: 196

Compound: CC(C)CCNC(=O)CSc1nc(O)c2ccccc2n1
- area under cytotoxicity dose-response curve [1]: 40.4
- area under intracellular growth-inhibition dose-response curve [2]: 27.8

Compound: NC1=NC[C@@H](CC2CCCCC2)N1CCc1cc(C(F)(F)F)cc(C(F)(F)F)c1
- area under cytotoxicity dose-response curve [1]: 109
- area under intracellular growth-inhibition dose-response curve [2]: 52.6

Compound: COC(=O)c1ccc2nc(C)cc(Nc3ccc(N(C)C)cc3)c2c1.Cl
- area under cytotoxicity dose-response curve [1]: < 0
- area under intracellular growth-inhibition dose-response curve [2]: 243

Compound: S=C(NCc1ccc(Cl)cc1)NC12CC3CC(CC(C3)C1)C2
- area under cytotoxicity dose-response curve [1]: < 0
- area under intracellular growth-inhibition dose-response curve [2]: 157

Compound: CC(C)c1ccc(NC(=S)NC2CCCCCC2)cc1
- area under cytotoxicity dose-response curve [1]: < 0
- area under intracellular growth-inhibition dose-response curve [2]: 141

Compound: Nc1c2c(nc3sc4c(c13)CCCCC4)CCCC2
- area under cytotoxicity dose-response curve [1]: 14.6
- area under intracellular growth-inhibition dose-response curve [2]: 171

Compound: CC1CCc2c(nc3sc4c(c3c2N)CCCC4)C1 (stereo not drawn)
- area under cytotoxicity dose-response curve [1]: 60.7
- area under intracellular growth-inhibition dose-response curve [2]: 206

Compound: O=C(NCC1CCCCC1)c1ccco1
- area under cytotoxicity dose-response curve [1]: 106
- area under intracellular growth-inhibition dose-response curve [2]: 251

Compound: NS(=O)(=O)c1ccc(NC(=S)Nc2ccc(OCc3ccccc3)cc2)cc1
- area under cytotoxicity dose-response curve [1]: < 0
- area under intracellular growth-inhibition dose-response curve [2]: 244

Compound: CCC(=O)NC(=S)Nc1ccc(NC(=O)COc2ccccc2)cc1
- area under cytotoxicity dose-response curve [1]: 69.1
- area under intracellular growth-inhibition dose-response curve [2]: 201

Compound: O=S1(=O)C=C(Sc2nc3ccccc3s2)c2ccccc21
- area under cytotoxicity dose-response curve [1]: 179
- area under intracellular growth-inhibition dose-response curve [2]: < 0

Compound: COc1ccc(/C=C(\NC(=O)c2ccc(C)cc2)C(=O)Nc2c(C)n(C)n(-c3ccccc3)c2=O)cc1
- area under cytotoxicity dose-response curve [1]: 42
- area under intracellular growth-inhibition dose-response curve [2]: 50.7

Compound: CCN(CC)CCOC(=O)c1ccc(N/C=C(/C#N)c2nc(-c3ccc(OC)c(OC)c3)cs2)cc1
- area under cytotoxicity dose-response curve [1]: 36.6
- area under intracellular growth-inhibition dose-response curve [2]: 90.7

Compound: Cc1ccc(C2=NN(C(=O)CCl)C(c3ccco3)C2)o1 (stereo not drawn)
- area under cytotoxicity dose-response curve [1]: 73.1
- area under intracellular growth-inhibition dose-response curve [2]: 88.6

Compound: O=C(CSc1nc2ccccc2nc1N1CCOCC1)N1CCN(c2ccccc2)CC1
- area under cytotoxicity dose-response curve [1]: 22.9
- area under intracellular growth-inhibition dose-response curve [2]: 199

Compound: CC(C)CCNC(=O)c1csc2c1CCCCC2
- area under cytotoxicity dose-response curve [1]: 42.8
- area under intracellular growth-inhibition dose-response curve [2]: 250

Compound: CCN1C(=O)C(O)(C2COC(C)(C)CC2=O)c2ccccc21 (stereo not drawn)
- area under cytotoxicity dose-response curve [1]: 41
- area under intracellular growth-inhibition dose-response curve [2]: 31.5

Compound: O=c1c2cc(Cl)ccc2oc2nc3n(c(=O)c12)CCCS3
- area under cytotoxicity dose-response curve [1]: 33.5
- area under intracellular growth-inhibition dose-response curve [2]: 216

Compound: O=C(NCc1ccccc1)c1cc2ccccc2o1
- area under cytotoxicity dose-response curve [1]: 71.7
- area under intracellular growth-inhibition dose-response curve [2]: 197

Compound: COc1ccc(/C(C)=N/NC(=O)c2ccncc2)cc1
- area under cytotoxicity dose-response curve [1]: 151
- area under intracellular growth-inhibition dose-response curve [2]: 229

Compound: O=C(/C=C/c1cccs1)NC1CCCC1
- area under cytotoxicity dose-response curve [1]: 39.1
- area under intracellular growth-inhibition dose-response curve [2]: 114

Compound: Cc1cc(C)cc(NC(=O)NC2CCCCCCC2)c1
- area under cytotoxicity dose-response curve [1]: 109
- area under intracellular growth-inhibition dose-response curve [2]: 198

Compound: CCc1ccc(/C(C)=N/NC(=O)c2ccc(-n3cnnn3)cc2)cc1
- area under cytotoxicity dose-response curve [1]: 24.6
- area under intracellular growth-inhibition dose-response curve [2]: < 0

Compound: CCOC(=O)c1c(-c2ccccc2)oc2ccc(O)c(CN3CCCC3)c12
- area under cytotoxicity dose-response curve [1]: < 0
- area under intracellular growth-inhibition dose-response curve [2]: 278

Compound: COc1ccccc1N1C(C)=CC(=Cc2sc3ccccc3[n+]2C)C=C1C.[I-]
- area under cytotoxicity dose-response curve [1]: 25.9
- area under intracellular growth-inhibition dose-response curve [2]: 119

Compound: O=C(CC1CCCCC1)NCC1CCCO1 (stereo not drawn)
- area under cytotoxicity dose-response curve [1]: 25.1
- area under intracellular growth-inhibition dose-response curve [2]: 165

Compound: Cc1nnc(SCC(=O)NNC(=O)COc2ccc(Br)cc2)n1C
- area under cytotoxicity dose-response curve [1]: 1.25
- area under intracellular growth-inhibition dose-response curve [2]: 68.9

Compound: O=C(NCc1ccco1)c1cc([N+](=O)[O-])cc([N+](=O)[O-])c1
- area under cytotoxicity dose-response curve [1]: 29.1
- area under intracellular growth-inhibition dose-response curve [2]: 160

Compound: COc1ccc(OCCCC(=O)NNC(=O)c2ccncc2)cc1
- area under cytotoxicity dose-response curve [1]: 6.62
- area under intracellular growth-inhibition dose-response curve [2]: 227

Compound: CCOC(=O)c1cn(Cc2cccc(C)c2)nn1
- area under cytotoxicity dose-response curve [1]: 56.6
- area under intracellular growth-inhibition dose-response curve [2]: 98.1

Compound: CC(C)(C)C(=O)/C(=C/c1ccncc1)n1cncn1
- area under cytotoxicity dose-response curve [1]: 106
- area under intracellular growth-inhibition dose-response curve [2]: 32

Compound: O=C(NC1CCCCC1)c1ccc([N+](=O)[O-])cc1
- area under cytotoxicity dose-response curve [1]: 15.6
- area under intracellular growth-inhibition dose-response curve [2]: 218

Compound: CCOC(=O)c1ccc(N2CN(CC)CNC2=S)cc1
- area under cytotoxicity dose-response curve [1]: 10.1
- area under intracellular growth-inhibition dose-response curve [2]: 254

Compound: COc1cc(C(C)=NNC(=O)c2ccncc2)ccc1O
- area under cytotoxicity dose-response curve [1]: 47.1
- area under intracellular growth-inhibition dose-response curve [2]: 265

Compound: O=C(Nc1ccc(NC(=S)NC(=O)c2cccs2)cc1)c1ccccc1
- area under cytotoxicity dose-response curve [1]: 33.4
- area under intracellular growth-inhibition dose-response curve [2]: 244

Compound: CCCc1nnc(NC(=S)Nc2ccccc2)s1
- area under cytotoxicity dose-response curve [1]: < 0
- area under intracellular growth-inhibition dose-response curve [2]: 213

Compound: COc1ccc(Cl)cc1NC(=O)C(C)OC(=O)Cn1cc(C(F)(F)F)ccc1=O (stereo not drawn)
- area under cytotoxicity dose-response curve [1]: 119
- area under intracellular growth-inhibition dose-response curve [2]: 24.1

Compound: O=P1(c2ccccc2)Nc2ccccc2N1c1ccccc1 (stereo not drawn)
- area under cytotoxicity dose-response curve [1]: 8.15
- area under intracellular growth-inhibition dose-response curve [2]: 264

Compound: Cc1ccc(C)c(NC(=O)CN(C)C(=O)c2ccc(S(=O)(=O)N3CCCCCC3)cc2)c1
- area under cytotoxicity dose-response curve [1]: < 0
- area under intracellular growth-inhibition dose-response curve [2]: 30.7

Compound: Cc1ccc(S(=O)(=O)[O-])cc1.c1cnc2c(c1)ccc1ccc[nH+]c12
- area under cytotoxicity dose-response curve [1]: 114
- area under intracellular growth-inhibition dose-response curve [2]: 94
